Laboratory results as given in US20160031927A1 (ASAVI, LLC, priority 2013, published 2016).
pEC50: −log10 of the molar value. Read-outs that look alike come from different tables or passages of the source.

Key:
[1] = system: subgenomic RNA-replicon HCV (genotype 1a); assay: Antiviral activity in Huh7 cells with subgenomic HCV RNA-replicon, ELISA on viral cor-antigen (genotype 1a); assay type: cell-based
Description: (§1) Antiviral activity (EC50) of nucleoside inhibitors of HCV RNA-polymerase NS5B of the general formula 1, 2 and 3 (further—test compounds) was determined in the human hepatoma cell line Huh7, comprising subgenomic RNA-replicon HCV (genotype 1b, 1a and 2a). For quantitative estimation of viral replication was used a version of immune test ELISA on viral cor-antigen in 96-well plate. Cytotoxicity of the compounds was estimated in parallel regime. As a reference substance was used PSI-7977. Cells Huh7 were seeded in 96-well plate (7.5×10^3 cells to each well in 100 μl of culture medium). Solutions of the tested compounds in DMEM medium {DMEM 1×; Source: Cellgro; Catalogue: 10-013-CV} were prepared immediately before use. Eleven serial three fold dilutions with concentrations from 20 nM to […] were prepared. In 4 hours after seeding, serial dilutions of the compounds were added to the cells (100 μl to each well). Final concentration of tested compounds was varied from 10 nM to 0.1 pM, and DMSO—0.5%. If it was necessary, higher concentrations of the test compounds were investigated. Each dilution of the compound was tested on two identical wells. Then the cells were incubated for three days at 37° C./5% CO2 and fixed by addition of acetone/methanol (1:1) mixture in amount of 250 μl/well. In 1 min the cells were washed 3 times with PBS (Phosphate Buffered Saline) solution. Then the cells were blocked by addition of 10% fetal calf serum in PBS solution in amount of 150 μl/well for 1 h at room temperature. After that the cells were incubated with mouse monoclonal antibodies to cor-antigen HCV, clon C7-50 (Source: Affinity BioReagents; Catalogue: MA1-080) (100 μl/well, working dilution—1:500 in 10% fetal calf serum in PBS solution) for 2 h at 37° C. The cells were washed 6 times with PBS/0.05% Tween 20 solution, then, they were incubated for 1 h with goat anti-mouse immunoglobulin antibodies (conjugated with horseradish peroxidase, 100 μl/well, working dilution—1:2500 in 10% fetal calf serum in PBS solution). The cells were washed 6 times with PBS/0.05% Tween 20 solution, once with PBS solution, after that substrate (1 tablet of o-phenylenediamine (oPD)+12 ml citrate/phosphate buffer+5 μl 30% H2O2) in amount of 100 μl/well was added. The plates were kept for 30 min in the dark at room temperature. The reaction was arrested by the adding 2N H2SO4 in amount of 100 μl/well, and optical density (at wavelength 490 nm) was measured by means of multiscan plate reader Victor3 V 1420 (Perkin Elmer). IC50 values (concentration of test compound, lowering the level of virus RNA-replicon by 50%) for every tested compound were calculated using XLfit 4 program.

[2] = system: subgenomic RNA-replicon HCV (genotype 2a); assay: Antiviral activity in Huh7 cells with subgenomic HCV RNA-replicon, ELISA on viral cor-antigen (genotype 2a); assay type: cell-based
Description: as §1

[3] = system: subgenomic RNA-replicon HCV (genotype 1b); assay: Antiviral activity in Huh7 cells with subgenomic HCV RNA-replicon, ELISA on viral cor-antigen (genotype 1b); assay type: cell-based
Description: as §1

[4] = Cytotoxicity determination, ATPLite kit; assay type: cell-based, human; conditions: human; Huh7 cells, genotype 1b, 10% FBS
Description: (§2) Cytotoxicity of the test compounds (CC50) was investigated in experiments on the human hepatoma cell line Huh7. Metabolic activity of cells was determined using ATPLite kit (Perkin Elmer, Boston, USA) in accordance with manufacturer instructions. Cytotoxic action was estimated by seeding the cells into black microplate with transparent bottom (96 wells, 10^4 cells to each well). Three independent repeats were used for each test compound. The tested compounds were added in 18 h, after that the cells were incubated together with the compounds for 96 h. Each well was washed two times with phosphate buffered saline (0.2 ml/well) and then the cells were lysed by adding cell buffer (50 μl/well) (all mentioned reagents are included in ATPLite kit). The microplate was incubated for 5 min on a rotating platform at 600 r/min, after that 50 μl of substrate solution (a part of ATPLite kit) was added into each well. The microplate was incubated for additional 5 min on a rotating platform at 600 r/min, kept for 10 min in the dark; after that luminescence was measured using TopCount NXT instrument (Packard, Perkin Elmer). CC50 Value corresponding to concentration of tested compound at which 50% of cells were ruined was used as quantitative characteristic for cytotoxicity estimation. Calculation of CC50 value: for calculation of inhibition effectiveness (% Inh) the following equation was used: % Inh=[(L^pos−L^ex)/L^pos−L^neg)]*100%, where L^pos—positive control, luminescence in the wells with cells without compounds; L^neg—negative control, luminescence in the wells with medium without cells; L^ex—luminescence in wells with a compound of definite concentration. Then, CC50 values were calculated using XLfit 4 program.

viral hepatitis C = conditions: together with Daclatasvir; previously untreated patients; without interferon and Ribavirin; intermediate data; cited from earlier work
[5] = system: human hepatoma cell line Huh7; assay: Cytotoxicity determination, ATPLite kit; assay type: cell-based; conditions: Huh7 cells, genotype 1b, 10% FBS
Description: as §2

[6] = Hepatitis C virus, Huh-7, Huh7 replicon, genotype 1a, 10% FBS, read-out: EC50, HCV genotype 1a
[7] = Hepatitis C virus, Huh-7, Huh7 replicon, genotype 2a, 10% FBS, read-out: EC50, HCV genotype 2a
[8] = Hepatitis C virus, Huh-7, read-out: EC50, HCV genotype 1b
[9] = Huh7 replicon, genotype 1a, 10% FBS, read-out: EC50, HCV genotype 1a
[10] = Huh7 replicon, genotype 2a, 10% FBS, read-out: EC50, HCV genotype 2a
[11] = Huh7 replicon, genotype 1b, 10% FBS, read-out: EC50, HCV genotype 1b

| Compound | pEC50 [1, 6] | pEC50 [2, 7] | pEC50 [3, 8] | CC50 at 96 h [4] | pEC50 ([1]; Hepatitis C virus, Huh-7, read-out: EC50, HCV genotype 1a) | pEC50 ([2]; Hepatitis C virus, Huh-7, read-out: EC50, HCV genotype 2a) | positive result in patients (viral hepatitis C) | pEC50 [1, 9] | pEC50 [2, 10] | pEC50 [3, 11] | CC50 [5] |
| --- | --- | --- | --- | --- | --- | --- | --- | --- | --- | --- | --- |
| CC(C)OC(=O)[C@H](C)NP(=O)(OC[C@H]1O[C@@H](n2ccc(NC(=O)CN(C)C)nc2=O)C(F)(F)[C@@H]1O)Oc1ccccc1 (stereo partly drawn) [1.1.2(1), iso-propyl (S)-2-({(2R,3R,5R)-5-[4-(2-dimethylamino-acetylamino)-2-oxo-2H-pyrimidin-1-yl]-4,4-difluoro-3-hydroxy-tetrahydro-furan-2-ylmethoxy]-phenoxy-phosphorylamino}-propionate] | 6.98 | 6.94 | 7.46 | > 10000 nM |  |  |  |  |  |  |  |
| CC(C)OC(=O)[C@H](C)NP(=O)(OC[C@H]1O[C@@H](n2ccc(NC(=O)[C@H](NC(=O)OC(C)(C)C)C(C)C)nc2=O)C(F)(F)[C@@H]1O)Oc1ccccc1 (some centres unmarked) [1.1.2(2)] | 7.02 | 7.10 | 7.22 | > 10000 nM |  |  |  |  |  |  |  |
| CC(C)OC(=O)C(C)NP(=O)(OCC1OC(n2ccc(NC(=O)C(NC(=O)OC(C)(C)C)C(C)C)nc2=O)C(F)(F)C1O)Oc1ccccc1 (centres unmarked) [1.1.2(3)] |  |  | 7.22 | > 10000 nM | 6.74 | 7.16 |  |  |  |  |  |
| CC(C)OC(=O)[C@H](C)NP(=O)(OC[C@H]1OC(n2ccc(NC(=O)[C@@H]3CCCN3C)nc2=O)C(F)(F)[C@@H]1O)Oc1ccc(Cl)cc1 (some centres unmarked) [1.1.2(6)] | 6.91 | 7.10 | 7.84 | > 10000 nM |  |  |  |  |  |  |  |
| CC(C)OC(=O)[C@H](C)N[P@](=O)(OC[C@H]1O[C@@H](n2ccc(=O)[nH]c2=O)[C@](C)(F)[C@@H]1O)Oc1ccccc1 [PSI-7977, iso-propyl (S)-2-{(S)-[(2R,3R,4R,5R)-5-(2,4-dioxo-3,4-dihydro-2H-pyrimidin-1-yl)-4-fluoro-3-hydroxy-4-methyl-tetrahydro-furan-2-ylmethoxy]-phenoxy-phosphorylamino}-propanoate, reference compound] |  |  |  |  |  |  | 100% | 6.53 | 7.05 | 7.04 | > 10000 nM |
| CC(C)OC(=O)[C@H](C)NP(=O)(OC[C@H]1OC(n2ccc(N)nc2=O)C(F)(F)[C@@H]1O)Oc1ccccc1 (stereo partly drawn) [compound 2, (S)-iso-propyl 2-((((2R,3R)-5-(4-aminooxopyrimidin-1(2H)-yl)-3-hydroxy-2-4,4-difluoro-tetrahydrofuran-2-yl)methoxy)(phenoxy)phosphorylamino)propanoate] |  |  |  |  |  |  |  | 6.94 | 7.24 | 7.86 | > 10000 nM |
| CC(=O)O[C@@H]1[C@@H](COP(=O)(N[C@@H](C)C(=O)OC(C)C)Oc2ccccc2)OC(n2ccc(N)nc2=O)C1(F)F (stereo partly drawn) [compound 3, (S)-iso-propyl 2-((((2R,3R)-3-acetoxy-5-(4-amino-2-oxopyrimidin-1(2H)-yl)-4,4-difluoro-tetrahydrofuran-2-yl)methoxy)(phenoxy)phosphorylamino)propanoate] | 6.85 | 7.21 | 7.80 | > 10000 nM |  |  |  |  |  |  |  |
